Legend:
crabgrass, large [1] = assay: Test A preemergence; assay type: in vivo, Digitaria sanguinalis; conditions: preemergence
Summary of the method: (§1)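 Injury readout: eye-scored versus untreated controls, 0 to 100. Exposure period: ~10 days, greenhouse. Application: soil-directed spray over sown seed (pre) or spray on seedlings 2–10 cm tall with one or two leaves (post), compound carried in non-phytotoxic solvent including surfactant.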

ducksalad = assay: Test B flood; assay type: in vivo, Heteranthera limosa; conditions: 250 g ai/ha, visual rating on 0 to 100 scale (0 no effect, 100 complete control), 13 to 15 days
Summary of the method: (§2)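 Response scored visually, 0–100 relative to controls, 13–15 days after the compound was applied into paddy water; plants were at the 2-leaf stage in pots kept flooded to 3 cm.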

pigweed [2] = assay: Test A postemergence; assay type: in vivo, Amaranthus retroflexus
Summary of the method: as §1

pigweed [3] = assay: Test A preemergence; assay type: in vivo, Amaranthus retroflexus; conditions: preemergence
Summary of the method: as §1

sedge, umbrella = assay: Test B flood; assay type: in vivo, Cyperus difformis; conditions: 250 g ai/ha, visual rating on 0 to 100 scale (0 no effect, 100 complete control), 13 to 15 days
Summary of the method: as §2

velvetleaf [4] = assay: Test A postemergence; assay type: in vivo, Abutilon theophrasti
Summary of the method: as §1

foxtail, giant [5] = assay: Test A preemergence; assay type: in vivo, Setaria faberii; conditions: preemergence
Summary of the method: as §1

barnyardgrass [6] = assay: Test B flood; assay type: in vivo, Echinochloa crus-galli; conditions: 250 g ai/ha, visual rating on 0 to 100 scale (0 no effect, 100 complete control), 13 to 15 days
Summary of the method: as §2

rice = assay: Test B flood; assay type: in vivo, Oryza sativa; conditions: 250 g ai/ha, visual rating on 0 to 100 scale (0 no effect, 100 complete control), 13 to 15 days
Summary of the method: as §2

morningglory [7] = assay: Test A postemergence; assay type: in vivo, Ipomoea spp.
Summary of the method: as §1

crabgrass, large [8] = assay: Test A postemergence; assay type: in vivo, Digitaria sanguinalis
Summary of the method: as §1

wheat [9] = assay: Test A preemergence; assay type: in vivo, Triticum aestivum; conditions: preemergence
Summary of the method: as §1

foxtail, giant [10] = assay: Test A postemergence; assay type: in vivo, Setaria faberii
Summary of the method: as §1

wheat [11] = assay: Test A postemergence; assay type: in vivo, Triticum aestivum
Summary of the method: as §1

barnyardgrass [12] = assay: Test A preemergence; assay type: in vivo, Echinochloa crus-galli; conditions: preemergence
Summary of the method: as §1

barnyardgrass [13] = assay: Test A postemergence; assay type: in vivo, Echinochloa crus-galli
Summary of the method: as §1

corn [14] = assay: Test A preemergence; assay type: in vivo, Zea mays; conditions: preemergence
Summary of the method: as §1

velvetleaf [15] = assay: Test A preemergence; assay type: in vivo, Abutilon theophrasti; conditions: preemergence
Summary of the method: as §1

morningglory [16] = assay: Test A preemergence; assay type: in vivo, Ipomoea spp.; conditions: preemergence
Summary of the method: as §1

corn [17] = assay: Test A postemergence; assay type: in vivo, Zea mays
Summary of the method: as §1

[18] = 125 g ai/ha, visual injury, 0 to 100 scale, approx. 10 days
[19] = 500 g ai/ha, visual injury after approx. 10 days, 0 to 100 scale (0 no effect, 100 complete control)
[20] = Postemergence, 500 g ai/ha, 0 to 100 scale (0 no effect, 100 complete control)
[21] = postemergence, 125 g ai/ha, about 10 days, visual rating on 0 to 100 scale (0 no effect, 100 complete control)
[22] = 125 g ai/ha, visual injury approx. 10 days after treatment

With `CCONC(=O)c1cc(CC)n(Cc2cc(C(F)(F)F)nn2CC)n1` [Compound 121] the “Crabgrass, Large plant response rating” value (crabgrass, large [1]; [18]) was 90, the “Crabgrass, Large plant response rating” value (crabgrass, large [1]; [19]) was 100 and the “Plant response rating, Ducksalad” value (ducksalad) was 75. The “Pigweed plant response rating” value (pigweed [2]; [20]) was 100, the “Pigweed plant response rating” value (pigweed [2]; [21]) was 90 and the “Pigweed plant response rating” value (pigweed [3]; [18]) was 100. The “Pigweed plant response rating” value (pigweed [3]; [19]) was 100, the “Plant response rating, Sedge, Umbrella” value (sedge, umbrella) was 75 and the “Velvetleaf plant response rating” value (velvetleaf [4]; [20]) was 100. The “Velvetleaf plant response rating” value (velvetleaf [4]; [21]) was 60, the “Foxtail, Giant plant response rating” value (foxtail, giant [5]; [18]) was 60 and the “Foxtail, Giant plant response rating” value (foxtail, giant [5]; [19]) was 80. For the same molecule, the “Plant response rating, Barnyardgrass” value (barnyardgrass [6]) was 15, the “Plant response rating, Rice” value (rice) was 20 and the “Morningglory plant response rating” value (morningglory [7]; [20]) was 100. For the same molecule, the “Morningglory plant response rating” value (morningglory [7]; [21]) was 90, the “Crabgrass, Large plant response rating” value (crabgrass, large [8]; [20]) was 90 and the “Crabgrass, Large plant response rating” value (crabgrass, large [8]; [21]) was 70. The “Wheat plant response rating” value (wheat [9]; [18]) was 10, the “Wheat plant response rating” value (wheat [9]; [19]) was 80 and the “Foxtail, Giant plant response rating” value (foxtail, giant [10]; [20]) was 80. For the same molecule, the “Foxtail, Giant plant response rating” value (foxtail, giant [10]; [21]) was 50, the “Wheat plant response rating” value (wheat [11]; [20]) was 60 and the “Wheat plant response rating” value (wheat [11]; [21]) was 0. For the same molecule, the “Barnyardgrass plant response rating” value (barnyardgrass [12]; [18]) was 70, the “Barnyardgrass plant response rating” value (barnyardgrass [12]; [19]) was 100 and the “Barnyardgrass plant response rating” value (barnyardgrass [13]; [20]) was 90. For the same molecule, the “Barnyardgrass plant response rating” value (barnyardgrass [13]; [21]) was 90, the “Corn plant response rating” value (corn [14]; [18]) was 30 and the “Corn plant response rating” value (corn [14]; [19]) was 90. For the same molecule, the “Velvetleaf plant response rating” value (velvetleaf [15]; [18]) was 20, the “Velvetleaf plant response rating” value (velvetleaf [15]; [19]) was 100 and the “Morningglory plant response rating” value (morningglory [16]; [18]) was 100. The “Morningglory plant response rating” value (morningglory [16]; [19]) was 100, the “Corn plant response rating” value (corn [17]; [20]) was 70 and the “Corn plant response rating” value (corn [17]; [21]) was 40.
For `CCc1cc(C(=O)NCC(F)(F)F)nn1Cc1nnc(C(F)(F)F)o1` [Compound 146], the “Crabgrass, Large plant response rating (0 to 100 scale)” value (crabgrass, large [1]; [22]) was 80, the “Crabgrass, Large plant response rating” value (crabgrass, large [1]; [19]) was 100 and the “Plant response rating, Ducksalad” value (ducksalad) was 0. The “Pigweed plant response rating” value (pigweed [2]; [20]) was 90, the “Pigweed plant response rating” value (pigweed [2]; [21]) was 60 and the “Pigweed plant response rating (0 to 100 scale)” value (pigweed [3]; [22]) was 100. For the same molecule, the “Pigweed plant response rating” value (pigweed [3]; [19]) was 100, the “Plant response rating, Sedge, Umbrella” value (sedge, umbrella) was 0 and the “Velvetleaf plant response rating” value (velvetleaf [4]; [20]) was 20. For the same molecule, the “Velvetleaf plant response rating” value (velvetleaf [4]; [21]) was 10, the “Foxtail, Giant plant response rating (0 to 100 scale)” value (foxtail, giant [5]; [22]) was 10 and the “Foxtail, Giant plant response rating” value (foxtail, giant [5]; [19]) was 90. The “Plant response rating, Barnyardgrass” value (barnyardgrass [6]) was 0, the “Plant response rating, Rice” value (rice) was 0 and the “Morningglory plant response rating” value (morningglory [7]; [20]) was 80. The “Morningglory plant response rating” value (morningglory [7]; [21]) was 20, the “Crabgrass, Large plant response rating” value (crabgrass, large [8]; [20]) was 80 and the “Crabgrass, Large plant response rating” value (crabgrass, large [8]; [21]) was 10. The “Wheat plant response rating (0 to 100 scale)” value (wheat [9]; [22]) was 0, the “Wheat plant response rating” value (wheat [9]; [19]) was 10 and the “Foxtail, Giant plant response rating” value (foxtail, giant [10]; [20]) was 20. For the same molecule, the “Foxtail, Giant plant response rating” value (foxtail, giant [10]; [21]) was 0, the “Wheat plant response rating” value (wheat [11]; [20]) was 0 and the “Wheat plant response rating” value (wheat [11]; [21]) was 0. For the same molecule, the “Barnyardgrass plant response rating” value (barnyardgrass [12]; [18]) was 0, the “Barnyardgrass plant response rating” value (barnyardgrass [12]; [19]) was 90 and the “Barnyardgrass plant response rating” value (barnyardgrass [13]; [20]) was 10. For the same molecule, the “Barnyardgrass plant response rating” value (barnyardgrass [13]; [21]) was 0, the “Corn plant response rating (0 to 100 scale)” value (corn [14]; [22]) was 0 and the “Velvetleaf plant response rating (0 to 100 scale)” value (velvetleaf [15]; [22]) was 10. For the same molecule, the “Velvetleaf plant response rating” value (velvetleaf [15]; [19]) was 60, the “Morningglory plant response rating (0 to 100 scale)” value (morningglory [16]; [22]) was 20 and the “Morningglory plant response rating” value (morningglory [16]; [19]) was 100. For the same molecule, the “Corn plant response rating” value (corn [17]; [20]) was 0 and the “Corn plant response rating” value (corn [17]; [21]) was 0.
